Key:
[1] = target: T1, GLYT1 subtype of the glycine transporter (Rattus norvegicus, UniProt P28572); experiment: [3H]-glycine uptake assay in C6 glioma cells (action of inhibiting glycine transporter); format: cell-based; settings: 20 min at 37° C., read-out: GLYT-inhibiting activity IC50
T1 construct: C6 glioma cell expressing GLYT1 subtype of the glycine transporter; host or cells: C6 glioma cells
T1 sequence (P28572 1-638): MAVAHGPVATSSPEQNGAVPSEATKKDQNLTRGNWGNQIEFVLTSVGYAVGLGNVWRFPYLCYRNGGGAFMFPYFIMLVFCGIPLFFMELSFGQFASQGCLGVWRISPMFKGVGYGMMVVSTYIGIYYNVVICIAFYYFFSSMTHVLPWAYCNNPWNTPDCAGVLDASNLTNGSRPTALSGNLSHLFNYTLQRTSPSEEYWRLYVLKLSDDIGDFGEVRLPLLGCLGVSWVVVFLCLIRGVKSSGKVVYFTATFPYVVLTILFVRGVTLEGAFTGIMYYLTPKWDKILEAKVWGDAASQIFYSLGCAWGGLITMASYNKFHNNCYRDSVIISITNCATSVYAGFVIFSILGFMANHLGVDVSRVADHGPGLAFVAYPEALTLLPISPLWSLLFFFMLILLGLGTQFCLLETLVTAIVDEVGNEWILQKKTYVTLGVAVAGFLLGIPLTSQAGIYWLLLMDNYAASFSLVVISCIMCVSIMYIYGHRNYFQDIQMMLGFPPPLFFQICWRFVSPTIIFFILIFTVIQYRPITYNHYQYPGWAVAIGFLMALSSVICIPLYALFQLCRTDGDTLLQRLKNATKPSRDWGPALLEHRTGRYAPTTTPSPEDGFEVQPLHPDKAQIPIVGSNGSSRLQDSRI
Experimental: 1. Action of Inhibiting Glycine Transporter
C6 glioma cell (American Type Culture Collection) was cultured in DMEM containing 10% fetal bovine serum, 100 units/ml penicillin G and 0.1 mg/ml streptomycin sulfate in a CO2 incubator under conditions of 5% CO2 and 37° C.
[^3H]-glycine uptake was performed by the method of Gomeza, et al.
C6 glioma cells were plated out at a concentration of 2×10^4 cells/well in a 96-well plate (Culturplate, Packard Co.), for culturing for 2 days. Subsequently, [^3H]-glycine uptake was tested. The cell was rinsed once in a buffer (150 mM NaCl, 5 mM KCl, 1 mM CaCl2, 1 mM MgCl2, 10 mM glucose, 5 mM L-alanine, 10 mM Hepes-Na, pH 7.4), followed by subsequent addition of the buffer, for incubation at 37° C. for 10 minutes.
After incubation, the buffer was exchanged to a reaction buffer including [^3H]-glycine (about 0.2 μM, 41 Ci/mmol, New England Nuclear)and a compound to be assessed, for incubation at 37° C. for another 20 minutes. After 20-min reaction, the reaction mixture was rinsed in ice-cold PBS (phosphate buffered saline). The cell was dissolved in 0.1N NaOH solution, to assay the radioactivity incorporated with a liquid scintillation counter. The specific incorporation was defined as a portion substituted with 3 mM sarcosine in the total incorporation. The test compound was assessed by determining the incorporation-inhibiting ratio of the specific incorporation.

[2] = tested on: (+)-HA966-induced enhancement of activity; experiment: (+)-HA966-induced enhancement of activity in mouse; format: in vivo, male ICR mouse; settings: orally given at 10 mg/kg; below 50% judged to have the effect
Text: Compound 1: • 3-(biphenyl-4-yl)-4-(2-methoxyphenyl)-5-methyl-4H-1,2,4-triazole (Japanese Patent unexamined uplication No. 2000-63363; Example 33) Compound 2: • 3-(biphenyl-4-yl)-5-(furan-2-yl)-4-phenyl-4H-1,2,4-triazole (LTPBP42 CD-ROM catalog 1996 of LaboTest Co. (Freiberg, Germany)) Compound 3: • 3-(biphenyl-4-yl)-5-ethyl-4-(2-methoxyphenyl)-4H-1,2,4-triazole (Japanese Patent unexamined publication No. 2000-63363; Example 23) 2. Experimental Method of (+)-HA966—Induced Enhancement of Activity in Mouse
The method reported previously (J. Neural Transm., 97: 175–185, 1994) was used for carrying out the experiment with modification. • Animal: male ICR mouse (Nippon SLC; age 5 to 7 weeks) • Chemical drug: reserpine (Apoplon Injection of 1 mg/ml; manufactured by Daiichi Pharmaceuticals Co., Ltd.), (+)-HA966 (Proc. Nat. Acad. Sci. U.S.A., 87, 347–351, 1990), α-methyl-para-tyrosine methyl ester (Sigma,Inc.). • Experimental apparatus: Supermex (Muromachi Machine) Experimental Method • (1) Pharmaceutical drug-treated groups were defined as follows. […] The effect was determined as follows. […] It was calculated by following formula. […]

CC(C)c1nnc(-c2ccc(-c3ccccc3)cc2)n1-c1ccccc1F [Production Example 1, 3-Biphenyl-4-yl-4-(2-fluorophenyl)-5-isopropyl-4H-1,2,4-triazole]
IC50 [1]: 360 nM
normalized activity ((+)-HA966-induced enhancement = 100%) [2]: 43%
